How the values were obtained:
[1] = Change in mouse weight, HCT116 xenograft, intraperitoneal administration; assay type: in vivo, nude mouse; parameters: Change in mouse weight: unit not given here; conditions: intraperitoneal once a day
Procedure: The Tr-9 was dissolved in sterile PBS and 1 mM Tr-9 200 µℓ was intraperitoneally administered per mouse once a day, and all animals were weighed immediately before the start of drug (Tr-9) administration and 9 times in total from day 2 to day 21 after cancer cell transplantation (Table 7).
In Table 7 above, data values are the mean ± standard deviation. After measuring the body weight, the animals were killed using CO2 gas, and the tumor was separated and the size was measured in 3 directions using a vernier caliper for each animal. Then, the change in tumor size was expressed as a calculated value of (length × width × height)/2 (Table 8).

[2] = test system: human lung cancer cells (A549); assay: Nude mouse xenograft model of human lung cancer cells, oral administration; assay type: in vivo; parameters: Tumor size increase (Vt—V0): unit not given here
Procedure: Anticancer activity against lung cancer according to the oral administration of Tr-9 was confirmed through a nude mouse xenograft model of human lung cancer cells (A549). Specific pathogen-free (SPF) nude mice of the BALB/C strain were used as the animal model. Animals were bred in the animal room of Daedeok Campus of Hannam University maintained at a temperature of 23±3° C., relative humidity of 55±15%, ventilation frequency of 10-20 times/hr, lighting time of 12 hours(lights on at 8 am and off at 8 pm) and illuminance of 150 to 300 Lux.
(§1) For cancer cell transplantation, all cells were collected and counted on the last day of culture, and the concentration of human lung cancer cell line A549 was adjusted to 5×10^6 cells/ml using PBS. The adjusted cell culture solution was injected subcutaneously into the auxiliary region between the right scapula and chest wall at 0.2 ml (1×10^6 cells/mouse) per mouse.
The Tr-9 was dissolved in sterile PBS and 1 mM Tr-9 200 µℓ was orally administered per mouse once a day, and all animals were weighed immediately before the start of drug (Tr-9) administration and 10 times in total from day 2 to day 23 after cancer cell transplantation (Table 1).
In Table 1 above, data values are the mean ± standard deviation. After measuring the body weight, the animals were killed using CO2 gas, and the tumor was separated and the size was measured in 3 directions using a vernier caliper for each animal. Then, the change in tumor size was expressed as a calculated value of (length × width × height)/2 (Table 2).
(§2) Tumor size increase is (Δt)= Vt—Vo, wherein Vt is the value of measuring the tumor size by date, and Vo is the value of measuring the initial tumor size.

[3] = test system: human lung cancer cells (A549); assay: Nude mouse xenograft model of human lung cancer cells, intraperitoneal administration; assay type: in vivo
Procedure: Anticancer activity against lung cancer according to the intraperitoneal administration of Tr-9 was confirmed through a nude mouse xenograft model of human lung cancer cells (A549). In Example 4, it was carried out using the same animal model and method as the oral administration, except that it was administered intraperitoneally.
Specific pathogen-free (SPF) nude mice of the BALB/C strain were used as the animal model. Animals were bred in the animal room of Daedeok Campus of Hannam University maintained at a temperature of 23±3° C., relative humidity of 55±15%, ventilation frequency of 10-20 times/hr, lighting time of 12 hours(lights on at 8 am and off at 8 pm) and illuminance of 150 to 300 Lux.
as §1
The Tr-9 was dissolved in sterile PBS and 1 mM Tr-9 200 µℓ was intraperitoneally administered per mouse once a day, and all animals were weighed immediately before the start of drug (Tr-9) administration and 10 times in total from day 2 to day 23 after cancer cell transplantation (Table 4).
In Table 4 above, data values are the mean ± standard deviation. After measuring the body weight, the animals were killed using CO2 gas, and the tumor was separated and the size was measured in 3 directions using a vernier caliper for each animal. Then, the change in tumor size was expressed as a calculated value of (length × width × height)/2 (Table 4).
as §2

## CC(=O)OC(C)(C)C1CC2=C(C)C(=O)CC2C(C)CC1OC(=O)CC(C)C (stereo not shown) [Tr-9]
[1]; 0 Day after drug treatment
  Change in mouse weight: 100.0 ±0.0
[1]; 2 Days after drug treatment
  Change in mouse weight: 99.7 ±1.7
[1]; 5 Days after drug treatment
  Change in mouse weight: 100.5 ±3.2
[1]; 7 Days after drug treatment
  Change in mouse weight: 99.9 ±4.1
[1]; 9 Days after drug treatment
  Change in mouse weight: 99.8 ±4.9
[1]; 11 Days after drug treatment
  Change in mouse weight: 98.6 ±3.5
[1]; 14 Days after drug treatment
  Change in mouse weight: 99.7 ±4.5
[1]; 16 Days after drug treatment
  Change in mouse weight: 98.5 ±6.0
[1]; 18 Days after drug treatment
  Change in mouse weight: 100.4 ±5.5
[1]; 21 Days after drug treatment
  Change in mouse weight: 102.4 ±7.0
[1]; day 2 to day 21
  difference in body weight according to the administration of the drugs: almost no difference in body weight
[2]; oral once a day, Day 0
  Tumor size increase (Vt—V0): 0.0±0.0
[2]; oral once a day, Day 2
  Tumor size increase (Vt—V0): 5.4±1.4
[2]; oral once a day, Day 2, vs control
  Inhibition rate (tumor size increase): 55.4%
[2]; oral once a day, Day 5
  Tumor size increase (Vt—V0): 13.9±6.1
[2]; oral once a day, Day 5, vs control
  Inhibition rate (tumor size increase): 31.5%
[2]; oral once a day, Day 7
  Tumor size increase (Vt—V0): 24.0±14.5
[2]; oral once a day, Day 7, vs control
  Inhibition rate (tumor size increase): 25.9%
[2]; oral once a day, Day 9
  Tumor size increase (Vt—V0): 36.5±12.5
[2]; oral once a day, Day 9, vs control
  Inhibition rate (tumor size increase): 31.3%
[2]; oral once a day, Day 12
  Tumor size increase (Vt—V0): 67.8±25.4
[2]; oral once a day, Day 12, vs control
  Inhibition rate (tumor size increase): 33.5%
[2]; oral once a day, Day 14
  Tumor size increase (Vt—V0): 119.9±37.5
[2]; oral once a day, Day 14, vs control
  Inhibition rate (tumor size increase): 34.1%
[2]; oral once a day, Day 16
  Tumor size increase (Vt—V0): 183.4±85.6
[2]; oral once a day, Day 16, vs control
  Inhibition rate (tumor size increase): 36.8%
[2]; oral once a day, Day 19
  Tumor size increase (Vt—V0): 322.8±71.3
[2]; oral once a day, Day 19, vs control
  Inhibition rate (tumor size increase): 39.0%
[2]; oral once a day, Day 21
  Tumor size increase (Vt—V0): 448.0±131.2
[2]; oral once a day, Day 21, vs control
  Inhibition rate (tumor size increase): 39.2%
[2]; oral once a day, Day 23
  Tumor size increase (Vt—V0): 575.0±159.7
  Tumor weight at Day 23: 0.676 ± 0.185 g
[2]; oral once a day, Day 23, vs control
  Inhibition rate (tumor size increase): 41.4%
[2]; oral, after day 19
  tumor size compared to the control group: statistically significantly smaller
[3]; intraperitoneal
  tumor size further reduced compared to the group intraperitoneally administered with the torilin: about 17%
[3]; intraperitoneal once a day, Day 0, table title: Change in tumor size
  Tumor size increase (Vt−V0): 0.0±0.0
[3]; intraperitoneal once a day, Day 2, table title: Change in tumor size
  Tumor size increase (Vt−V0): 7.0±5.4
[3]; intraperitoneal once a day, Day 2, vs control
  Inhibition rate (tumor size increase): 48.5%
[3]; intraperitoneal once a day, Day 5, table title: Change in tumor size
  Tumor size increase (Vt−V0): 13.8±8.5
[3]; intraperitoneal once a day, Day 5, vs control
  Inhibition rate (tumor size increase): 34.0%
[3]; intraperitoneal once a day, Day 7, table title: Change in tumor size
  Tumor size increase (Vt−V0): 19.6±10.1
[3]; intraperitoneal once a day, Day 7, vs control
  Inhibition rate (tumor size increase): 42.2%
[3]; intraperitoneal once a day, Day 9, table title: Change in tumor size
  Tumor size increase (Vt−V0): 24.4±7.1
[3]; intraperitoneal once a day, Day 9, vs control
  Inhibition rate (tumor size increase): 46.7%
[3]; intraperitoneal once a day, Day 12, table title: Change in tumor size
  Tumor size increase (Vt−V0): 61.1±7.0
[3]; intraperitoneal once a day, Day 12, vs control
  Inhibition rate (tumor size increase): 30.5%
[3]; intraperitoneal once a day, Day 14, table title: Change in tumor size
  Tumor size increase (Vt−V0): 116.4±15.1
[3]; intraperitoneal once a day, Day 14, vs control
  Inhibition rate (tumor size increase): 22.7%
[3]; intraperitoneal once a day, Day 16, table title: Change in tumor size
  Tumor size increase (Vt−V0): 198.3±22.8
[3]; intraperitoneal once a day, Day 16, vs control
  Inhibition rate (tumor size increase): 24.6%
[3]; intraperitoneal once a day, Day 19, table title: Change in tumor size
  Tumor size increase (Vt−V0): 309.2±39.5
[3]; intraperitoneal once a day, Day 19, vs control
  Inhibition rate (tumor size increase): 39.6%
[3]; intraperitoneal once a day, Day 21, table title: Change in tumor size
  Tumor size increase (Vt−V0): 415.2±53.1
[3]; intraperitoneal once a day, Day 21, vs control
  Inhibition rate (tumor size increase): 38.9%
[3]; intraperitoneal once a day, Day 23
  Tumor weight at Day 23: 0.641 ± 0.1 g
[3]; intraperitoneal once a day, Day 23, table title: Change in tumor size
  Tumor size increase (Vt−V0): 531.8±46.5
[3]; intraperitoneal once a day, Day 23, vs control
  Inhibition rate (tumor size increase): 44.2%
[3]; intraperitoneal, after day 19
  tumor size compared to the control group: statistically significantly smaller

From patent publication US20230107983A1, “COMPOUND ISOLATED FROM TORILIDIS FRUCTUS, AND ANTICANCER PHARMACEUTICAL COMPOSITION CONTAINING SAME AS ACTIVE INGREDIENT” (PHARMA-GENE CO., LTD., priority 2020, published 2023)
